What was measured:
[1] = biological target: T1, human RORγt LBD (Homo sapiens, UniProt P51449); test: RORγt (LBD) Reporter Assay (GAL4 luciferase, HEK293T cells); format: cell-based; settings: for IC50: compounds for 24 hours
T1 construct: expressed in transfected cells; host or cells: HEK293T
T1 sequence (P51449 258-518): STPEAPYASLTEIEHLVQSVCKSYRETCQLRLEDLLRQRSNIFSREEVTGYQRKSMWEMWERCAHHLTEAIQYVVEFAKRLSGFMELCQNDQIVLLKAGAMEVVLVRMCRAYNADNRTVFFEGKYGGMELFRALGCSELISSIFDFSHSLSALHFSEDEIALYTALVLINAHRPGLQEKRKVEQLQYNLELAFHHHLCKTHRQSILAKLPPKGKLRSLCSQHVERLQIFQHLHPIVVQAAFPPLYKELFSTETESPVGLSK
Summary of the method: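 HEK293T cells transiently co-transfected with GAL4 DBD–human RORγt LBD (pBIND, with renilla luciferase control) and GAL4-responsive firefly luciferase reporter, plated in phenol-red free DMEM with 5% lipid-reduced FCS. Compound exposure 24 h; firefly/renilla luminescence ratio plotted against compound concentration.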

[2] = system: IL-17 production by CD4 T cells; test: Human Th17 Assay (IL-17 production by CD4 T cells); format: cell-based; settings: IL-17 in supernatant after 3 days, Th17 differentiation conditions
Description: The human Thl7 assay tests the effect of RORyt modulatory compounds on IL-17 production by CD4 T cells under conditions which favor Th17 differentiation.
Total CD4^+ T cells were isolated from the peripheral blood mononuclear cells (PBMC) of healthy donors using a CD4^+ T cell isolation kit II, following the manufacturer's instructions (Miltenyi Biotec). Cells were resuspended in a medium of RPMI-1640 supplemented with 10% fetal bovine serum, penicillin, streptomycin, […], and β-mercaptoethanol and were added to 96-well plates at 1.5x10^5 per 100 µL per well. 50 µL of compound at titrated concentrations in DMSO were added into each well at final DMSO concentration at 0.2%. Cells were incubated for 1 hour, then 50 µL of Th17 cell differentiation medium was added to each well. The final concentrations of antibodies and cytokines (R&D Systems) in differentiation medium were: 3x10^6/mL anti-CD3/CD28 beads (prepared using human T cell activation/expansion kit, Miltenyi Biotec), 10 µg/mL anti-IL4, 10 µg/mL anti-IFNγ, 10 ng/mL IL1β, 10 ng/mL IL23, 50 ng/mL IL6, 3 ng/mL TGFβ and 20 U/mL IL2. Cells were cultured at 37 °C and 5% CO2 for 3 days. Supernatants were collected and the accumulated IL-17 in culture was measured by using MULTI-SPOT® Cytokine Plate following manufacture's instruction (Meso Scale Discovery). The plate was read using Sector Imager 6000, and IL-17 concentration was extrapolated from the standard curve. The IC50s were determined by GraphPad.

Row | inhibition at 6 µM ([1]; HEK-293T, 6 µM compound) [%] | IC50 [1] [µM] | IC50 ([2]; Homo sapiens, CD4+ T, 72 h) [µM] | RORγt (LBD) Reporter Assay, % inhibition @ 6 µM ([1]; 6 µM compound, 6 µM) [%] | IC50 [2] [µM] | SMILES
1 | 100 | ~1 | 0.12 |  |  | COc1nc2ccc(C(O)c3cnc(C)n3C)cc2c(Cl)c1Cc1ccc(C(F)(F)F)cc1 (single isomer, unassigned) [Example 15b, (4-Chloro-2-methoxy-3-(4-(trifluoromethyl)benzyl)quinolin-6-yl)(1,2-dimethyl-1H-imidazol-5-yl)methanol]
2 |  | 0.08 |  | 101 | 0.13 | COc1nc2ccc(C(O)c3cnc(C)n3C)cc2c(Cl)c1Cc1ccc(C(F)(F)F)cc1 (single isomer, unassigned) [Example 15c, (4-Chloro-2-methoxy-3-(4-(trifluoromethyl)benzyl)quinolin-6-yl)(1,2-dimethyl-1H-imidazol-5-yl)methanol]
